Assay results reported in patent US20240174723A1, “STAPLED ANTIMICROBIAL PEPTIDES (STAMPS) AND USES THEREOF” (Lytica Therapeutics, Inc., priority 2021, published 2024).
Converted amounts (≈) assume the structure as drawn. Positions of bridges follow the written chain, without caps; N, C: chain ends. Non-standard residues stand in square brackets, D forms with d. Residues, ends and D or L forms follow the SMILES beside them. S5 = C=CCCC[C@](C)(N)C(=O)O; Dab = NCC[C@H](N)C(=O)O; Dap = NC[C@H](N)C(=O)O

Legend:
K. pneumoniae = format: cell-based, Klebsiella pneumoniae
Description: (§1) Antimicrobial Activity Assay: The following microbroth dilution protocol was adapted from CLSI to determine the minimum inhibitory concentration (MIC) of StAMPs. Briefly, Mueller-Hinton broth (MHB) or cation-adjusted Mueller-Hinton broth (MHB II) was prepared and autoclaved. Then, a colony of bacterial cells was picked and grown overnight in broth at 37° C. and then diluted and allowed to grow again for 3-4 hours. Serial dilutions of peptide stocks in water (10 μl) were prepared using clear round-bottom polypropylene 96-well plates. Then 90 μl of bacteria in broth was added to give a final inoculum of 5×10^5 CFU/ml. The plates were then covered with porous tape to reduce evaporation and incubated for 20-24 hours at 37° C. The MIC was the minimum peptide concentration at which no visible bacterial growth was observed.
(§2) Renal toxicity was measured after 90 minutes of incubation, while liver toxicity was measured after 48 hours of incubation with StAMPs. N/A=not tested. The following apply to all peptides (i.e., StAMPs) listed in Tables A-C: Crosslinks (X^1—X^2 and X^3—X^4): (alk); N-terminus: —NH2; C-terminus: amidated with —NH2; counterion: Cl^−. The following apply to all peptides (i.e., StAMPs) listed in Table D: Crosslinks (X^1—X^2 and X^3—X^4): (alk); N-terminus: —NH2; C-terminus: as shown in table; counterion: Cl^−.

S. aureus = format: cell-based, Staphylococcus aureus
Description: as §1, §2

P. aeruginosa = format: cell-based, Pseudomonas aeruginosa
Description: as §1, §2
StAMP Micelle Formulation: DSPE-MPEG(2000) was suspended in buffered saline at 50-100 mg/mL overnight. StAMP stock solutions at 5-20 mg/mL in buffered saline were prepared and equal volumes of micelle and StAMP stock solution were mixed at the desired StAMP:Lipid ratio. Suspensions were allowed to sit for 5-10 minutes at room temperature before being used in in vitro and in vivo assays. […]

in vitro = format: cell-based; conditions: human, Inhibitory Concentration at 50% Cytotoxicity (IC50) Human Liver Cells (HepG2)
Description: Cell culture: RPTEC were maintained in MEM media supplemented with growth factors. HEPG2 cell line was maintained in Eagle's Minimum Essential Medium (EMEM) supplemented with fetal bovine serum to a final concentration of 10%.
48 hours cytotoxicity assay: Cells were plated in a 96-well format, and after 4 hour incubation to allow attachment, serial dilutions of StAMPs from a 5 mg/mL water stock, or vehicle, were then added to the cells in a final volume of 100 μl. After incubating at 37° C. for 48 hours, 100 μl of CellTiter-Glo® reagent was added to the cells, and the plates were incubated 10 minutes at room temperature. Luminescence was then measured on a microplate reader.
as §2

A. baumannii = format: cell-based, Acinetobacter baumannii
Description: as §1, §2

E. coli = format: cell-based, Escherichia coli
Description: as §1, §2

SMILES	Minimum Inhibitory Concentration (MIC) K. pneumoniae (K. pneumoniae) [mg/L]	Minimum Inhibitory Concentration (MIC) S. aureus (S. aureus) [mg/L]	Minimum Inhibitory Concentration (MIC) P. aeruginosa (P. aeruginosa) [mg/L]	IC50 at 48 hours (in vitro) [mg/L]	Minimum Inhibitory Concentration (MIC) A. baumannii (A. baumannii) [mg/L]	Minimum Inhibitory Concentration (MIC) E. coli (E. coli) [mg/L]
CC(C)[C@@H]1NC(=O)[C@@](C)(NC(=O)[C@H](CO)NC(=O)[C@H](CCCCN)NC(=O)CNC(=O)[C@H](Cc2ccccc2)NC(=O)[C@H](CCCCN)NC(=O)[C@H](CCCCN)NC(=O)[C@H](CCCCN)NC(=O)[C@H](CCCCN)NC(=O)[C@H](CCCCN)NC(=O)[C@]2(C)CCCC=CCCC[C@](C)(NC(=O)CN)C(=O)NCC(=O)N[C@@H](CCCCN)C(=O)N[C@@H](Cc3ccccc3)C(=O)N2)CCCC=CCCC[C@@](C)(C(=O)N[C@@H](C)C(=O)N[C@@H](CCCCN)C(=O)N[C@@H](CCCCN)C(=O)NCC(=O)NCC(=O)N[C@@H](CCC(=O)O)C(N)=O)NC(=O)[C@H](CCC(=O)O)NC(=O)CNC1=O [compound 92] (H-G[S5]GKF[S5]KKKKKFGKS[S5]VGE[S5]AKKGGE-NH2; staple 2-6, 16-20)	>64	>64	16	> 200	4	16
CC(C)[C@@H]1NC(=O)[C@@](C)(NC(=O)[C@H](C)NC(=O)[C@H](CCCCN)NC(=O)[C@H](CO)NC(=O)[C@H](Cc2ccccc2)NC(=O)[C@H](CCCCN)NC(=O)[C@H](CCCCN)NC(=O)[C@H](CCCCN)NC(=O)[C@H](CCCCN)NC(=O)[C@H](CN)NC(=O)[C@]2(C)CCCC=CCCC[C@](C)(NC(=O)CN)C(=O)NCC(=O)N[C@@H](CCCCN)C(=O)N[C@@H](Cc3ccccc3)C(=O)N2)CCCC=CCCC[C@@](C)(C(=O)N[C@@H](C)C(=O)N[C@@H](CCCCN)C(=O)N[C@@H](CCCCN)C(N)=O)NC(=O)[C@H](CCC(=O)O)NC(=O)CNC1=O [compound 86] (H-G[S5]GKF[S5][Dap]KKKKFSKA[S5]VGE[S5]AKK-NH2; staple 2-6, 16-20)	32	64	1	> 200	1	2
CC(C)[C@@H]1NC(=O)[C@@](C)(NC(=O)[C@H](C)NC(=O)[C@H](CCCCN)NC(=O)CNC(=O)[C@H](Cc2ccccc2)NC(=O)[C@H](CCCCN)NC(=O)[C@H](CCCCN)NC(=O)[C@H](CCCCN)NC(=O)[C@H](CCCCN)NC(=O)[C@H](CCCCN)NC(=O)[C@]2(C)CCCC=CCCC[C@](C)(NC(=O)CN)C(=O)NCC(=O)N[C@@H](CCCCN)C(=O)N[C@@H](Cc3ccccc3)C(=O)N2)CCCC=CCCC[C@@](C)(C(=O)N[C@@H](C)C(=O)N[C@@H](CCCCN)C(=O)N[C@@H](CCCCN)C(=O)NCC(=O)N[C@@H](CCC(=O)O)C(N)=O)NC(=O)[C@H](CCC(=O)O)NC(=O)CNC1=O [compound 53] (H-G[S5]GKF[S5]KKKKKFGKA[S5]VGE[S5]AKKGE-NH2; staple 2-6, 16-20)	32	>64	16	211 (≈ 76.7 µM)	4	8
CC(C)[C@@H]1NC(=O)[C@@](C)(NC(=O)[C@H](C)NC(=O)[C@H](CCCCN)NC(=O)CNC(=O)[C@H](Cc2ccccc2)NC(=O)[C@H](CCCCN)NC(=O)[C@H](CCCCN)NC(=O)[C@H](CCCCN)NC(=O)[C@H](CCCCN)NC(=O)[C@H](CCCCN)NC(=O)[C@]2(C)CCCC=CCCC[C@](C)(NC(=O)CN)C(=O)NCC(=O)N[C@@H](CCCCN)C(=O)N[C@@H](Cc3ccccc3)C(=O)N2)CCCC=CCCC[C@@](C)(C(=O)N[C@@H](C)C(=O)N[C@@H](CCN)C(=O)N[C@@H](CCCCN)C(N)=O)NC(=O)[C@H](CCC(=O)O)NC(=O)CNC1=O [compound 44] (H-G[S5]GKF[S5]KKKKKFGKA[S5]VGE[S5]A[Dab]K-NH2; staple 2-6, 16-20)	6	32	4	87 (≈ 34.3 µM)	2	2
CC(C)[C@@H]1NC(=O)[C@H](C(C)C)NC(=O)[C@@](C)(NC(=O)[C@H](C)NC(=O)[C@H](CCCCN)NC(=O)CNC(=O)[C@@H](Cc2ccccc2)NC(=O)[C@H](CCCCN)NC(=O)[C@H](CCCCN)NC(=O)[C@H](CCCCN)NC(=O)[C@H](CCCCN)NC(=O)[C@H](Cc2c[nH]cn2)NC(=O)[C@]2(C)CCCC=CCCC[C@](C)(NC(=O)CN)C(=O)NCC(=O)N[C@@H](CCCCN)C(=O)N[C@H](Cc3ccccc3)C(=O)N2)CCCC=CCCC[C@@](C)(C(=O)N[C@@H](C)C(=O)N[C@@H](CCCCN)C(=O)N[C@@H](CCCCN)C(N)=O)NC(=O)[C@H](CCC(=O)O)NC1=O [compound 28] (H-G[S5]GK[dF][S5]HKKKK[dF]GKA[S5]VVE[S5]AKK-NH2; staple 2-6, 16-20)	>64	>64	64	201 (≈ 76.9 µM)	16	64
CC(C)[C@@H]1NC(=O)[C@@](C)(NC(=O)[C@H](C)NC(=O)[C@H](CCCCN)NC(=O)[C@H](CO)NC(=O)[C@H](Cc2ccccc2)NC(=O)[C@H](CCCCN)NC(=O)[C@H](CCCCN)NC(=O)[C@H](CCCCN)NC(=O)[C@H](CCCCN)NC(=O)[C@H](CCCCN)NC(=O)[C@]2(C)CCCC=CCCC[C@](C)(NC(=O)CN)C(=O)NCC(=O)N[C@@H](CCCCN)C(=O)N[C@@H](Cc3ccccc3)C(=O)N2)CCCC=CCCC[C@@](C)(C(=O)N[C@@H](C)C(=O)N[C@@H](CCCCN)C(=O)N[C@@H](CCCCN)C(=O)NCC(=O)NCC(=O)N[C@@H](CCC(=O)O)C(N)=O)NC(=O)[C@H](CCC(=O)O)NC(=O)CNC1=O [compound 91] (H-G[S5]GKF[S5]KKKKKFSKA[S5]VGE[S5]AKKGGE-NH2; staple 2-6, 16-20)	>64	>64	64	> 200	4	64
CC(C)[C@@H]1NC(=O)[C@@](C)(NC(=O)[C@H](C)NC(=O)[C@H](CCCCN)NC(=O)CNC(=O)[C@H](Cc2ccccc2)NC(=O)[C@H](CCCCN)NC(=O)[C@H](CCCCN)NC(=O)[C@H](CCCCN)NC(=O)[C@H](CCCCN)NC(=O)[C@H](CCCCN)NC(=O)[C@]2(C)CCCC=CCCC[C@](C)(NC(=O)CN)C(=O)NCC(=O)N[C@@H](CCCCN)C(=O)N[C@@H](Cc3ccccc3)C(=O)N2)CCCC=CCCC[C@@](C)(C(=O)N[C@@H](C)C(=O)N[C@@H](CCCCN)C(=O)N[C@@H](CCCCN)C(=O)NCC(=O)NCC(=O)NCC(=O)N[C@@H](CCC(=O)O)C(N)=O)NC(=O)[C@H](CCC(=O)O)NC(=O)CNC1=O [compound 54] (H-G[S5]GKF[S5]KKKKKFGKA[S5]VGE[S5]AKKGGGE-NH2; staple 2-6, 16-20)	32	>64	8	262 (≈ 91.5 µM)	4	8
CC(C)[C@@H]1NC(=O)[C@@](C)(NC(=O)[C@H](C)NC(=O)[C@H](CCCCN)NC(=O)CNC(=O)[C@H](Cc2ccccc2)NC(=O)[C@H](CCCCN)NC(=O)[C@H](CCCCN)NC(=O)[C@H](CCN)NC(=O)[C@H](CCCCN)NC(=O)[C@H](CCCCN)NC(=O)[C@]2(C)CCCC=CCCC[C@](C)(NC(=O)CN)C(=O)NCC(=O)N[C@@H](CCCCN)C(=O)N[C@@H](Cc3ccccc3)C(=O)N2)CCCC=CCCC[C@@](C)(C(=O)N[C@@H](C)C(=O)N[C@@H](CCCCN)C(=O)N[C@@H](CCCCN)C(N)=O)NC(=O)[C@H](CCC(=O)O)NC(=O)CNC1=O [compound 42] (H-G[S5]GKF[S5]KK[Dab]KKFGKA[S5]VGE[S5]AKK-NH2; staple 2-6, 16-20)	16	32	8	194 (≈ 76.5 µM)	2	4
